Earlier results as cited in patent US20220331377A1, “DELIVERY VEHICLE FOR IN SITU DELIVERING OF PHARMACEUTICAL AGENTS” (priority 2019, published 2022).

Tested on: C. difficile
Settings: patients; P=0.05; cited from earlier work

SMILES: CN[C@H](CC(C)C)C(=O)N[C@H]1C(=O)N[C@@H](CC(N)=O)C(=O)N[C@H]2C(=O)N[C@H]3C(=O)N[C@H](C(=O)N[C@H](C(=O)O)c4cc(O)cc(O)c4-c4cc3ccc4O)[C@H](O)c3ccc(c(Cl)c3)Oc3cc2cc(c3O[C@@H]2O[C@H](CO)[C@@H](O)[C@H](O)[C@H]2O[C@H]2C[C@](C)(N)[C@H](O)[C@H](C)O2)Oc2ccc(cc2Cl)[C@H]1O [vancomycin]
- recurrent C. difficile disease (RCDD): 50%
